According to ChEMBL document CHEMBL1126386, “-alkoxyphenol leukotriene B4 receptor antagonists: effect of a chroman carboxylic acid” (Bioorg Med Chem Lett, 1992):

Columns and labels:
Cavia porcellus = assay: Compound was tested for antagonizing effect of LTB4-induced gas trapping in the guinea pig when administered intravenously; format: functional; conditions: iv
Leukotriene B4 receptor = Leukotriene B4 receptor (Homo sapiens, UniProt Q9NPC1+Q15722); assay: Inhibition of LTB4-induced CD11b/CD18 integrin up-regulation in human neutrophils; format: functional

CCCc1c(OCCCOc2cc(O)c(OCC)cc2CC)ccc2c1OC(C(=O)O)CC2 (configuration not stated)
ED50 (Cavia porcellus): 0.012 mg/kg | IC50 (Leukotriene B4 receptor): 195 nM
